From patent publication EP4722207A1, “OXOISOINDOLINYL-SUBSTITUTED TETRAHYDROPYRIMIDINEDIONE DERIVATIVE AND USE THEREOF” (Gluetacs Therapeutics (Shanghai) Co., Ltd., priority 2023, dated 2024)

What was measured:
Assay type in all cases: cell-based
IKZF2 = target: T1, IKZF2 (Homo sapiens, UniProt Q96SW2+Q9UKS7); test: Western-blot assay, substrate protein degradation in hPBMCs: IKZF2; conditions: for IKZF2 substrate protein remaining %: compounds at 50 nM and 500 nM, 24 hours; for substrate protein remaining % IKZF2: 24 hours of compound treatment, 50 nM and 500 nM
T1 construct: effects of the compounds of the present disclosure on the expression of target proteins in cells; endogenous in cells; host or cells: human PBMCs (hPBMCs)

IKZF1 = target: T2, IKZF1 (Homo sapiens, UniProt Q13422+Q96SW2); test: Western-blot assay, substrate protein degradation in hPBMCs: IKZF1; conditions: for IKZF1 substrate protein remaining %: compounds at 50 nM and 500 nM, 24 hours; for substrate protein remaining % IKZF1: 24 hours of compound treatment, 50 nM and 500 nM
T2 construct: effects of the compounds of the present disclosure on the expression of target proteins in cells; endogenous in cells; host or cells: human PBMCs (hPBMCs)

IKZF3 = target: T3, IKZF3 (Homo sapiens, UniProt Q96SW2+Q9UKT9); test: Western-blot assay, substrate protein degradation in hPBMCs: IKZF3; conditions: for IKZF3 substrate protein remaining %: compounds at 50 nM and 500 nM, 24 hours; for substrate protein remaining % IKZF3: 24 hours of compound treatment, 50 nM and 500 nM
T3 construct: effects of the compounds of the present disclosure on the expression of target proteins in cells; endogenous in cells; host or cells: human PBMCs (hPBMCs)

GSPT1 = target: T4, GSPT1 (Homo sapiens, UniProt P15170+Q96SW2); test: Western-blot assay, substrate protein degradation in hPBMCs: GSPT1; conditions: for GSPT1 substrate protein remaining %: compounds at 50 nM and 500 nM, 24 hours; for substrate protein remaining % GSPT1: 24 hours of compound treatment, 50 nM and 500 nM
T4 construct: effects of the compounds of the present disclosure on the expression of target proteins in cells; endogenous in cells; host or cells: human PBMCs (hPBMCs)

CK1α = target: T5, CK1α (Homo sapiens, UniProt P48729+Q96SW2); test: Western-blot assay, substrate protein degradation in hPBMCs: CK1α; conditions: for CK1α substrate protein remaining %: compounds at 50 nM and 500 nM, 24 hours; for substrate protein remaining % CK1α: 24 hours of compound treatment, 50 nM and 500 nM
T5 construct: effects of the compounds of the present disclosure on the expression of target proteins in cells; endogenous in cells; host or cells: human PBMCs (hPBMCs)

WEE1 = target: T6, WEE1 (Homo sapiens, UniProt P30291+Q96SW2); test: Western-blot assay, substrate protein degradation in hPBMCs: WEE1; conditions: for WEE1 substrate protein remaining %: compounds at 50 nM and 500 nM, 24 hours; for substrate protein remaining % WEE1: 24 hours of compound treatment, 50 nM and 500 nM
T6 construct: effects of the compounds of the present disclosure on the expression of target proteins in cells; endogenous in cells; host or cells: human PBMCs (hPBMCs)
T6 sequence (P30291 whole entry): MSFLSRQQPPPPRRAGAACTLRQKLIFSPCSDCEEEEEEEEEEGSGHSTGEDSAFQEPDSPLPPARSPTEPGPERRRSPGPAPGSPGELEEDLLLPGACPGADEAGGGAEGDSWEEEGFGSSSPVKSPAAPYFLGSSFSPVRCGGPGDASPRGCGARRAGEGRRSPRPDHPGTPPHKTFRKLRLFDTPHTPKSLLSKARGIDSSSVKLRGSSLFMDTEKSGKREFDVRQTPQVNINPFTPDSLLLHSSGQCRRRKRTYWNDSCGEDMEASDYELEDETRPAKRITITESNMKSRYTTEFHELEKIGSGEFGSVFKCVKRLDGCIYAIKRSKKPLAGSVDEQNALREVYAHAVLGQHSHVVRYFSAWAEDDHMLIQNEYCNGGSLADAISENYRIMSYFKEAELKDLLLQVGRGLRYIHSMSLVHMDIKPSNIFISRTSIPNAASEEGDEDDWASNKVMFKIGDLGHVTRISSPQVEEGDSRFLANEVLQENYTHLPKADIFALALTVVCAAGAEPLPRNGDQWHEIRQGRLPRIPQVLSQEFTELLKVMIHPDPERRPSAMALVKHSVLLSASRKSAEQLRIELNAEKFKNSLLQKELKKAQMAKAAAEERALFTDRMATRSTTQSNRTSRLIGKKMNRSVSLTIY
T6 sequence (Q96SW2 whole entry): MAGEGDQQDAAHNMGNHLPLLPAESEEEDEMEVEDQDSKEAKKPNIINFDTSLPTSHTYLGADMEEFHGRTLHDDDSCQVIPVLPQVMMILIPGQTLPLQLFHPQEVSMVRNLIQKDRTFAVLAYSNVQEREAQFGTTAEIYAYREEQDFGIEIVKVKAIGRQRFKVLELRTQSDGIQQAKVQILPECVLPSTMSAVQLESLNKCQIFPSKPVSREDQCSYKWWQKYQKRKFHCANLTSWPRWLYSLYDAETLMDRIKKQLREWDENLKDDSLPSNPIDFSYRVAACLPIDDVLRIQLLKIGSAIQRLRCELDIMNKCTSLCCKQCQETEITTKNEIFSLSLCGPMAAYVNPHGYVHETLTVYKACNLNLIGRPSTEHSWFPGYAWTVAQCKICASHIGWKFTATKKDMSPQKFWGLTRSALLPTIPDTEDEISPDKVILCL
T6 sequence (Q16531 whole entry partner): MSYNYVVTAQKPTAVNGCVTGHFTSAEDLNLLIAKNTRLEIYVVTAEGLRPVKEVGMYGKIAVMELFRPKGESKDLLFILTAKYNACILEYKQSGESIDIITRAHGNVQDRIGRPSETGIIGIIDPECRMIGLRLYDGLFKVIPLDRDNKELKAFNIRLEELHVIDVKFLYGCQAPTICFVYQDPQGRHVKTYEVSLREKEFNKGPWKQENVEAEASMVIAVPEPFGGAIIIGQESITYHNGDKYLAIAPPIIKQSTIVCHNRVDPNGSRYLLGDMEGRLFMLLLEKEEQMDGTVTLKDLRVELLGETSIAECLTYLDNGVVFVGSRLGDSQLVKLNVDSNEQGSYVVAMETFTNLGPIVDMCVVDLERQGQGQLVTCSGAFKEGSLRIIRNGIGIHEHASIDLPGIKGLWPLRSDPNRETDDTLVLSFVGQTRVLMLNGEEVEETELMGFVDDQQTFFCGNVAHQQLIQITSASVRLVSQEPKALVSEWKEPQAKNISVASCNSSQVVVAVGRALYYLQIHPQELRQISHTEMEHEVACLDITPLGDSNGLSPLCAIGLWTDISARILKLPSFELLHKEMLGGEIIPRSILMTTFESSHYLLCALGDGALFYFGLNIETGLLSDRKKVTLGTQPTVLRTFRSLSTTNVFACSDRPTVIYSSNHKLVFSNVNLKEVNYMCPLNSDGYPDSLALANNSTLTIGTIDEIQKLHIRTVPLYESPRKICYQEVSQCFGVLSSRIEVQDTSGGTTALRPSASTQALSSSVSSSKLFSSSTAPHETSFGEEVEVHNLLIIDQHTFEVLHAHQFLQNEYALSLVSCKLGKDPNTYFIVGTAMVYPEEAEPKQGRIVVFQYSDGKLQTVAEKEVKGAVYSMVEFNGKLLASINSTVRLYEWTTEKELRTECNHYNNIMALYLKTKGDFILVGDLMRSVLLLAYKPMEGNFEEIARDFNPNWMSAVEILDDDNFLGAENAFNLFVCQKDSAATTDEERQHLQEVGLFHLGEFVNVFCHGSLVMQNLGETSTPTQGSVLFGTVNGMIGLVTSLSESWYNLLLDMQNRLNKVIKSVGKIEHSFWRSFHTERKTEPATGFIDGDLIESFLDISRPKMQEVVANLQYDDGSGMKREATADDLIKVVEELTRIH

T3 sequence (Q9UKT9 whole entry): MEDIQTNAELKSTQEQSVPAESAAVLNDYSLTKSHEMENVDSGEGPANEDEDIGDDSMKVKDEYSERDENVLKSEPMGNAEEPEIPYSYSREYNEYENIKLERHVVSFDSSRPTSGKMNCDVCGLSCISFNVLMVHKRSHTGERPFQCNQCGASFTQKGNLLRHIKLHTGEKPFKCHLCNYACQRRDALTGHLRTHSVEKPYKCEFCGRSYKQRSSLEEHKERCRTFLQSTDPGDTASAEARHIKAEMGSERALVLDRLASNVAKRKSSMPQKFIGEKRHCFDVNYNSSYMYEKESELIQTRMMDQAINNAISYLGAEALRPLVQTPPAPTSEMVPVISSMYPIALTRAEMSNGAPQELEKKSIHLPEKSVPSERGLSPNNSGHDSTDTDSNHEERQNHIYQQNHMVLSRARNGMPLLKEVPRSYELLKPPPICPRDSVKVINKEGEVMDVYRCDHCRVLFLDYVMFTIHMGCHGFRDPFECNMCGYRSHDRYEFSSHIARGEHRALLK
T3 sequence (Q96SW2 whole entry): as the sequence (Q96SW2 whole entry) above
T3 sequence (Q16531 whole entry partner): as the sequence (Q16531 whole entry partner) above
T4 sequence (P15170 whole entry): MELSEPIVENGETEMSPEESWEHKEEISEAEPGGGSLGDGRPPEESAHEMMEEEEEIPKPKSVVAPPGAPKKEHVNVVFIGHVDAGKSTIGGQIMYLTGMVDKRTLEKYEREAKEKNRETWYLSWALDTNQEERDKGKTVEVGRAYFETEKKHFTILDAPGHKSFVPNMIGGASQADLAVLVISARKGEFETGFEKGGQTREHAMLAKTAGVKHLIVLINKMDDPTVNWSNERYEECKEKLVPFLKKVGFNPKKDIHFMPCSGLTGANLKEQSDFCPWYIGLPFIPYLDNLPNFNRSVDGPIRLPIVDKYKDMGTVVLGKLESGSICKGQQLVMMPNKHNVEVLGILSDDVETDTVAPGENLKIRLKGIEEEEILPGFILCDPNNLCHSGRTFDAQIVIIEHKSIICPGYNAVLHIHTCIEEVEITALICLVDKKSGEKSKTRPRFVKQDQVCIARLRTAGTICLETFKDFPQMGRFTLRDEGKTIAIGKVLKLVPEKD
T4 sequence (Q96SW2 whole entry): as the sequence (Q96SW2 whole entry) above
T4 sequence (Q16531 whole entry partner): as the sequence (Q16531 whole entry partner) above
T5 sequence (P48729 whole entry): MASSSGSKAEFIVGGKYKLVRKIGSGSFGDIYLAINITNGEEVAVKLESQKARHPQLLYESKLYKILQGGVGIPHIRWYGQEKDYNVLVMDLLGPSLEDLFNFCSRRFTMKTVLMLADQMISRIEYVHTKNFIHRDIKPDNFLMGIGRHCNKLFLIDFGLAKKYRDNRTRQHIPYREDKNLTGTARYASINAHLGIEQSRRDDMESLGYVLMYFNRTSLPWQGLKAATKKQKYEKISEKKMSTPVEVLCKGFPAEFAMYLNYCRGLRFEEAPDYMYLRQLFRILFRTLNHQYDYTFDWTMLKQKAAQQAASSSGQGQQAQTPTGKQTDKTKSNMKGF
T5 sequence (Q96SW2 whole entry): as the sequence (Q96SW2 whole entry) above
T5 sequence (Q16531 whole entry partner): as the sequence (Q16531 whole entry partner) above
T2 sequence (Q13422 whole entry): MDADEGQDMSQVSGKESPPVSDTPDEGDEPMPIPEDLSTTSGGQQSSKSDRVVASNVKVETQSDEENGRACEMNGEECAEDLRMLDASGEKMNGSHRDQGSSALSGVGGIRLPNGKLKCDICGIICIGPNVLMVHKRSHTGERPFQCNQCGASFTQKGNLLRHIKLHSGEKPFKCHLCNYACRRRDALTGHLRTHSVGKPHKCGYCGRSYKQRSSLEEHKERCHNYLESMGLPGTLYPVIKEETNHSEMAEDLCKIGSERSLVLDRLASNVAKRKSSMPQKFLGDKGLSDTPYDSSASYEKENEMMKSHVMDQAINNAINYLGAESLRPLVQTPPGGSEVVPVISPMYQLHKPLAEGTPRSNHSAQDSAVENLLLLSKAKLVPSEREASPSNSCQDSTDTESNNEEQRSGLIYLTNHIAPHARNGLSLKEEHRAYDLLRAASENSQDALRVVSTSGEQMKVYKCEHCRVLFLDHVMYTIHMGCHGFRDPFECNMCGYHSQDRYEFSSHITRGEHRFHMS
T2 sequence (Q96SW2 whole entry): as the sequence (Q96SW2 whole entry) above
T2 sequence (Q16531 whole entry partner): as the sequence (Q16531 whole entry partner) above

Question: How did the “IKZF2 substrate protein remaining %” value (IKZF2) turn out when `Cn1cc(C2=CCN(Cc3ccc4c(c3)C(=O)N(N3CCC(=O)NC3=O)C4=O)CC2)c2ccc(F)cc21` [GT-05276, 2-(2,4-dioxotetrahydropyrimidin-1(2H)-yl)-5-((4-(6-fluoro-1-methyl-1H-indol-3-yl)-3,6-dihydropyridin-1(2H)-yl)methyl)isoindoline-1,3-dione] was run?
Answer: B ("B" is defined as 80%< substrate protein remaining %≤ 100%)

Question: And the “IKZF1 substrate protein remaining %” value (IKZF1)?
Answer: B ("B" is defined as 80%< substrate protein remaining %≤ 100%)

Question: What about the “IKZF3 substrate protein remaining %” value (IKZF3) of the same compound?
Answer: A ("A" is defined as 0% ≤ substrate protein remaining % ≤ 80%)

Question: What about the “GSPT1 substrate protein remaining %” value (GSPT1) of the same compound?
Answer: A ("A" is defined as 0% ≤ substrate protein remaining % ≤ 80%)

Question: What about the “CK1α substrate protein remaining %” value (CK1α) of the same compound?
Answer: B ("B" is defined as 80%< substrate protein remaining %≤ 100%)

Question: What about the “WEE1 substrate protein remaining %” value (WEE1) of the same compound?
Answer: B ("B" is defined as 80%< substrate protein remaining %≤ 100%)

Question: Which results are given for `O=C1CCN(N2C(=O)c3ccc(CN4CC(C5CCOc6cc(F)ccc65)C4)cc3C2=O)C(=O)N1` (stereo not drawn) [GT-07715, 2-(2,4-dioxotetrahydropyrimidin-1(2H)-yl)-5-((3-(7-fluorochroman-4-yl)azetidin-1-yl)methyl)isoindoline-1,3-dione]?
Answer: substrate protein remaining % IKZF2 (IKZF2): B (80%< substrate protein remaining %≤ 100%); substrate protein remaining % IKZF1 (IKZF1): B (80%< substrate protein remaining %≤ 100%); substrate protein remaining % IKZF3 (IKZF3): B (80%< substrate protein remaining %≤ 100%); substrate protein remaining % GSPT1 (GSPT1): A (0% ≤ substrate protein remaining % ≤ 80%); substrate protein remaining % CK1α (CK1α): A (0% ≤ substrate protein remaining % ≤ 80%); substrate protein remaining % WEE1 (WEE1): B (80%< substrate protein remaining %≤ 100%)

Question: How did the “IKZF2 substrate protein remaining %” value (IKZF2) turn out when `O=C1CCN(N2C(=O)c3ccc(CN4CCN(c5ncc(Cl)cc5Cl)CC4)cc3C2=O)C(=O)N1` [GT-06969, 5-((4-(3,5-dichloropyridin-2-yl)piperazin-1-yl)methyl)-2-(2,4-dioxotetrahydropyrimidin-1(2H)-yl)isoindoline-1,3-dione] was run?
Answer: A ("A" is defined as 0% ≤ substrate protein remaining % ≤ 80%)

Question: And the “IKZF1 substrate protein remaining %” value (IKZF1)?
Answer: B ("B" is defined as 80%< substrate protein remaining %≤ 100%)

Question: And the “IKZF3 substrate protein remaining %” value (IKZF3)?
Answer: B ("B" is defined as 80%< substrate protein remaining %≤ 100%)

Question: What about the “GSPT1 substrate protein remaining %” value (GSPT1) of the same compound?
Answer: B ("B" is defined as 80%< substrate protein remaining %≤ 100%)

Question: What about the “CK1α substrate protein remaining %” value (CK1α) of the same compound?
Answer: B ("B" is defined as 80%< substrate protein remaining %≤ 100%)

Question: What about the “WEE1 substrate protein remaining %” value (WEE1) of the same compound?
Answer: A ("A" is defined as 0% ≤ substrate protein remaining % ≤ 80%)

Question: For `O=C1CCN(N2C(=O)c3ccc(CN4CCC(c5ccnc6cc(F)ccc56)CC4)cc3C2=O)C(=O)N1` [GT-07689, 2-(2,4-dioxotetrahydropyrimidin-1(2H)-yl)-5-((4-(7-fluoroquinolin-4-yl)piperidin-1-yl)methyl)isoindoline-1,3-dione], which “substrate protein remaining % IKZF2” value (IKZF2) is on record?
Answer: B (80%< substrate protein remaining %≤ 100%)

Question: And the “substrate protein remaining % IKZF1” value (IKZF1)?
Answer: B (80%< substrate protein remaining %≤ 100%)

Question: What about the “substrate protein remaining % IKZF3” value (IKZF3) of the same compound?
Answer: B (80%< substrate protein remaining %≤ 100%)

Question: What about the “substrate protein remaining % GSPT1” value (GSPT1) of the same compound?
Answer: A (0% ≤ substrate protein remaining % ≤ 80%)

Question: What about the “substrate protein remaining % CK1α” value (CK1α) of the same compound?
Answer: A (0% ≤ substrate protein remaining % ≤ 80%)

Question: What about the “substrate protein remaining % WEE1” value (WEE1) of the same compound?
Answer: B (80%< substrate protein remaining %≤ 100%)

Question: Which results are given for `O=C1CCN(N2C(=O)c3ccc(CN4CC=C(c5ncccc5F)CC4)cc3C2=O)C(=O)N1` [GT-07492, 2-(2,4-dioxotetrahydropyrimidin-1(2H)-yl)-5-((3-fluoro-3',6'-dihydro-[2,4'-bipyridin]-1'(2'H)-yl)methyl)isoindoline-1,3-dione]?
Answer: substrate protein remaining % IKZF2 (IKZF2): B (80%< substrate protein remaining %≤ 100%); substrate protein remaining % IKZF1 (IKZF1): B (80%< substrate protein remaining %≤ 100%); substrate protein remaining % IKZF3 (IKZF3): B (80%< substrate protein remaining %≤ 100%); substrate protein remaining % GSPT1 (GSPT1): B (80%< substrate protein remaining %≤ 100%); substrate protein remaining % CK1α (CK1α): A (0% ≤ substrate protein remaining % ≤ 80%); substrate protein remaining % WEE1 (WEE1): B (80%< substrate protein remaining %≤ 100%)

Question: Which “substrate protein remaining % IKZF2” value (IKZF2) does the source give for `O=C1CCN(N2Cc3cc(CN4CCN(c5noc6ccncc56)CC4)ccc3C2=O)C(=O)N1` [GT-07497, 1-(5-((4-(isoxazolo[4,5-c]pyridin-3-yl)piperazin-1-yl)methyl)-1-oxoisoindolin-2-yl)dihydropyrimidine-2,4(1H,3H)-dione] here?
Answer: A (0% ≤ substrate protein remaining % ≤ 80%)

Question: And the “substrate protein remaining % IKZF1” value (IKZF1)?
Answer: A (0% ≤ substrate protein remaining % ≤ 80%)

Question: What about the “substrate protein remaining % IKZF3” value (IKZF3) of the same compound?
Answer: B (80%< substrate protein remaining %≤ 100%)

Question: What about the “substrate protein remaining % GSPT1” value (GSPT1) of the same compound?
Answer: A (0% ≤ substrate protein remaining % ≤ 80%)

Question: And the “substrate protein remaining % CK1α” value (CK1α)?
Answer: A (0% ≤ substrate protein remaining % ≤ 80%)

Question: And the “substrate protein remaining % WEE1” value (WEE1)?
Answer: A (0% ≤ substrate protein remaining % ≤ 80%)

Question: Which “IKZF2 substrate protein remaining %” value (IKZF2) does the source give for `Cc1cccc(N2CCN(Cc3ccc4c(c3)CN(N3CCC(=O)NC3=O)C4=O)CC2)n1` [GT-05125, 1-(5-((4-(6-methylpyridin-2-yl)piperazin-1-yl)methyl)-1-oxoisoindolin-2-yl)dihydropyrimidine-2,4(1H,3H)-dione] here?
Answer: B ("B" is defined as 80%< substrate protein remaining %≤ 100%)

Question: What about the “IKZF1 substrate protein remaining %” value (IKZF1) of the same compound?
Answer: A ("A" is defined as 0% ≤ substrate protein remaining % ≤ 80%)

Question: What about the “IKZF3 substrate protein remaining %” value (IKZF3) of the same compound?
Answer: A ("A" is defined as 0% ≤ substrate protein remaining % ≤ 80%)

Question: What about the “GSPT1 substrate protein remaining %” value (GSPT1) of the same compound?
Answer: A ("A" is defined as 0% ≤ substrate protein remaining % ≤ 80%)

Question: What about the “CK1α substrate protein remaining %” value (CK1α) of the same compound?
Answer: A ("A" is defined as 0% ≤ substrate protein remaining % ≤ 80%)

Question: What about the “WEE1 substrate protein remaining %” value (WEE1) of the same compound?
Answer: A ("A" is defined as 0% ≤ substrate protein remaining % ≤ 80%)

Question: `O=C1CCN(N2C(=O)c3ccc(CN4CCN(c5cccnc5)CC4)cc3C2=O)C(=O)N1` [GT-06971, 2-(2,4-dioxotetrahydropyrimidin-1(2H)-yl)-5-((4-(pyridin-3-yl)piperazin-1-yl)methyl)isoindoline-1,3-dione] was tested. Which “IKZF2 substrate protein remaining %” value (IKZF2) did it give?
Answer: A ("A" is defined as 0% ≤ substrate protein remaining % ≤ 80%)

Question: And the “IKZF1 substrate protein remaining %” value (IKZF1)?
Answer: B ("B" is defined as 80%< substrate protein remaining %≤ 100%)

Question: What about the “IKZF3 substrate protein remaining %” value (IKZF3) of the same compound?
Answer: B ("B" is defined as 80%< substrate protein remaining %≤ 100%)

Question: And the “GSPT1 substrate protein remaining %” value (GSPT1)?
Answer: B ("B" is defined as 80%< substrate protein remaining %≤ 100%)

Question: What about the “CK1α substrate protein remaining %” value (CK1α) of the same compound?
Answer: B ("B" is defined as 80%< substrate protein remaining %≤ 100%)

Question: What about the “WEE1 substrate protein remaining %” value (WEE1) of the same compound?
Answer: A ("A" is defined as 0% ≤ substrate protein remaining % ≤ 80%)

Question: Which results are given for `O=C1CCN(N2Cc3cc(CN4CCN(c5cc(Cl)ccn5)CC4)ccc3C2=O)C(=O)N1` [GT-05128, 1-(5-((4-(4-chloropyridin-2-yl)piperazin-1-yl)methyl)-1-oxoisoindolin-2-yl)dihydropyrimidine-2,4(1H,3H)-dione]?
Answer: IKZF2 substrate protein remaining % (IKZF2): A ("A" is defined as 0% ≤ substrate protein remaining % ≤ 80%); IKZF1 substrate protein remaining % (IKZF1): A ("A" is defined as 0% ≤ substrate protein remaining % ≤ 80%); IKZF3 substrate protein remaining % (IKZF3): A ("A" is defined as 0% ≤ substrate protein remaining % ≤ 80%); GSPT1 substrate protein remaining % (GSPT1): A ("A" is defined as 0% ≤ substrate protein remaining % ≤ 80%); CK1α substrate protein remaining % (CK1α): A ("A" is defined as 0% ≤ substrate protein remaining % ≤ 80%); WEE1 substrate protein remaining % (WEE1): A ("A" is defined as 0% ≤ substrate protein remaining % ≤ 80%)
